We go through three compounds from US11787791B2, “Inhibitors of VAP-1” (ACUCELA INC., priority 2018, dated 2023).

Holding throughout (format): biochemical
One test addresses rhMAO-A (Homo sapiens (Human), UniProt P21397). Description: MAO-A inhibition assay (modified Promega MAO-Glo). Conditions: substrate 10 μM, 1 hour at room temperature. How it is done:
(§1) The capability of compounds described herein to inhibit MAO was determined using a modified Promega MAO-Glo™ assay kit. The substrate ((4S)-4,5-dihydro-2-(6-hydroxybenzothiazolyl)-4-thiazolecarboxylic acid) was converted by MAO to produce methyl ester luciferin. The luciferin was then converted by luciferase to produce oxyluciferin and light. The light was measured using a luminescence setting on the plate reader. A standard curve was prepared by serially diluting luciferin in reaction buffer. The standard kit reaction buffer was used—100 mM HEPES (pH 7.5), 5% glycerol. The substrate was dispensed into the wells so that the final concentration for MAO-A inhibition assay would be 10 μM and MAO-B inhibition assay would be 1 μM. Inhibitors were diluted in DMSO to 4× and distributed to the appropriate wells. Clorgyline and Deprenyl served as positive controls. rhMAO-A and rhMAO-B were purchased from Sigma. MAO-A or MAO-B was added to the appropriate wells. The plate was incubated for 1 hour, at room temperature with gentle shaking (90 rpm). The detection agent was added at equal volume (48 μL detection agent to 48 μL reaction). The plate was incubated for 20 minutes, at room temperature with gentle shaking (90 rpm). The plate luminescence was read. Data processing was performed using Prism software.
(§2) The capability of compounds described herein to inhibit MAO was determined using a modified Promega MAO-Glo™ assay. Test compounds, substrate and enzyme were incubated per manufacturer instructions for 1 hour, at room temperature with gentle shaking (90 rpm) before addition of detection agent. The detection agent was added at equal volume (48 μL detection agent to 48 μL reaction). The plate was incubated for 20 minutes, at room temperature with gentle shaking (90 rpm). The plate luminescence was read. Data processing was performed using Prism software.

The target in another test is rhVAP-1 (Homo sapiens (Human), UniProt Q16853). The test is described as follows: VAP-1 fluorometric assay (Amplex Red/HRP, H2O2 from oxidative deamination of benzylamine). Conditions: rhVAP-1, 50 μM benzylamine, 30 minutes at 37° C., pH 7.4. How it is done:
The capability of compounds described herein to inhibit the enzymatic activity of vascular adhesion protein-1 (VAP-1) was determined by fluorometric assay. The assay procedure provided by R&D Systems was modified slightly for use as an inhibitor screening assay. The assay measured the H2O2 generated from the oxidative deamination of benzylamine by rhVAP-1 by converting Amplex® Red to the fluorescent product, resorufin, via horseradish peroxidase (HRP) and H2O2. Reaction buffer was 10 mM NaHCO3, pH 7.4. A standard curve was prepared by serially diluting H2O2 in reaction buffer. A 10 μM solution of resorufin was prepared in reaction buffer and was dispensed to 2 wells. These wells served as positive control for maximum fluorescence. Reaction buffer was added to the individual wells so that the final volume in each well was 100 μL. Amplex Red was diluted to 1 mM in reaction buffer. A 10 U stock of HRP was prepared in reaction buffer. A reaction cocktail was prepared by mixing equal parts 1 mM Amplex Red with 10 U HRP with 3 parts reaction buffers. The reaction cocktail was added to the appropriate wells, so that that final concentration in the well was 0.05 mM Amplex Red and 0.5 U HRP. A 200 μM solution of benzylamine was prepared in reaction buffer. Benzylamine was added to the appropriate wells so that the final concentration was 50 μM. Inhibitors were diluted in DMSO to 20× and distributed to the appropriate wells. UP-1207 served a positive control. rhVAP-1 was purchased from R&D Systems. The concentration used for each lot was determined so that the activity was equal to the first lot. […] The plate was read at […]. […]
The capability of compounds described herein to inhibit the enzymatic activity of vascular adhesion protein-1 (VAP-1) was determined by fluorometric assay. […] The assay measured the H2O2 generated from the oxidative deamination of benzylamine by rhVAP-1 by converting Amplex® Red to the fluorescent product, resorufin, via horseradish peroxidase (HRP) and H2O2. […] The plate was read at 530/35 emission and 590/35 excitation. […]

The target of another test is rhMAO-B (Homo sapiens (Human), UniProt P27338). The test is described as follows: MAO-B inhibition assay (modified Promega MAO-Glo). How it is done:
as §1, §2

Where [1] appears, read: rhMAO-B, substrate 1 μM, 1 hour at room temperature, read-out: MAO B IC50.

Where two headings read alike, the source gives them in different places. A value given as a limit tells only on which side of the number the result lay.

Chain of rhMAO-A (P21397 whole entry): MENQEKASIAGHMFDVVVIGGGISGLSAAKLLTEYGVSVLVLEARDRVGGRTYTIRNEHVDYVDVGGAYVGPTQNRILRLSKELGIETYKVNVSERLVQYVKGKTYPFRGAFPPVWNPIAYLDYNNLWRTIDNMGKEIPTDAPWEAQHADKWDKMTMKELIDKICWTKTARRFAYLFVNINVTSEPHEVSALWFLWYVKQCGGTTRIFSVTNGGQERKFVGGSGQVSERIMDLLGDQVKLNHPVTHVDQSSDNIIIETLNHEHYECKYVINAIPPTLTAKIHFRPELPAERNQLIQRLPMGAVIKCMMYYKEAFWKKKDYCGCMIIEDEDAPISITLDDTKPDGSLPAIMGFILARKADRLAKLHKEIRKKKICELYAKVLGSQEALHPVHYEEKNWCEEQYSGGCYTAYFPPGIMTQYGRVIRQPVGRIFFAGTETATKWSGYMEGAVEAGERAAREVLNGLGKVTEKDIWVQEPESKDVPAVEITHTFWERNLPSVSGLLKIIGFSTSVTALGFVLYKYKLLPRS
Chain of rhVAP-1 (Q16853 whole entry): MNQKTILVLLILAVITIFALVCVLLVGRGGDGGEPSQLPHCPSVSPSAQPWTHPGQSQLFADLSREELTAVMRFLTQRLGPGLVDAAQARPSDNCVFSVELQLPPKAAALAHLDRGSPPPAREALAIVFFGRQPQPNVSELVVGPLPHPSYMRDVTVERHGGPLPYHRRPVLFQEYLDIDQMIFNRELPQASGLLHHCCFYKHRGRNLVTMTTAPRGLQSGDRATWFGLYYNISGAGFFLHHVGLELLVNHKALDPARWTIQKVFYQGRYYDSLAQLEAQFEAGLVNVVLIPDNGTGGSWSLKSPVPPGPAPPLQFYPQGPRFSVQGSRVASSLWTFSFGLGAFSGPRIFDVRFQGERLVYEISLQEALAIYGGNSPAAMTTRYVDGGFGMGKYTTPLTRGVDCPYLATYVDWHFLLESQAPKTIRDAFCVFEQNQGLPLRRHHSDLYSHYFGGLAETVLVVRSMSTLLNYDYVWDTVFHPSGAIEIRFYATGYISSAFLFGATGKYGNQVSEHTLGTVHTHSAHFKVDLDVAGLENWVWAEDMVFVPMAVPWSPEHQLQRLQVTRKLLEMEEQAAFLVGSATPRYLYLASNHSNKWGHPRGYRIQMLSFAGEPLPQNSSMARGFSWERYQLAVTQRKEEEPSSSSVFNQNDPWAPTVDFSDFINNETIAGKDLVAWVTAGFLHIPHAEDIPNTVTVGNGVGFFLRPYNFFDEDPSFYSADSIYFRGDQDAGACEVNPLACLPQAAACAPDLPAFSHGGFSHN
Chain of rhMAO-B (P27338 whole entry): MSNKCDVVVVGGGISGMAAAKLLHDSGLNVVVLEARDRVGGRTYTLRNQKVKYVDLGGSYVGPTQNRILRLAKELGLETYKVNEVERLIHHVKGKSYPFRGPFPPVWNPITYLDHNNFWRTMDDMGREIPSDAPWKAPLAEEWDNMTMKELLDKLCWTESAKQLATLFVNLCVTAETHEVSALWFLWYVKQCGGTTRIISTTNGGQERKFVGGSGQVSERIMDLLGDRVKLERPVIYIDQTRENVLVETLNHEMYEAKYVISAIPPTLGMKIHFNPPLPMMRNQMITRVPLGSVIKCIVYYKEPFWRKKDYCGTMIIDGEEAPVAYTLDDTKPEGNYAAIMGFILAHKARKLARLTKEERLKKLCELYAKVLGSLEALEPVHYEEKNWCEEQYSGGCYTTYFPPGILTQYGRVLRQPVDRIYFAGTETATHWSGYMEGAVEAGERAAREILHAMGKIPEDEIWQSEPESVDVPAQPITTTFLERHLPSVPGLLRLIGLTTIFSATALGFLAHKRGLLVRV

The term IC50 denotes the concentration needed to halve the response being measured. As for `CC1CCN(c2nc3ccc(OC/C(=C/F)CN)cc3o2)C1` (stereo not drawn) [Example 30, (E)-3-fluoro-2-(((2-(3-methylpyrrolidin-1-yl)benzo[d]oxazol-6-yl)oxy)methyl)prop-2-en-1-amine 4-methylbenzenesulfonate], the IC50 at rhMAO-A was 10 to 30 µM; at rhVAP-1, less than 100 nM; at rhMAO-B (setting [1]) it was 100 to 1000 nM.
With `CC1CCN(c2nc3ccc(OC/C(=C\F)CN)cc3o2)C1` (stereo not drawn) [Example 42, (Z)-3-fluoro-2-(((2-(3-methylpyrrolidin-1-yl)benzo[d]oxazol-6-yl)oxy)methyl)prop-2-en-1-amine 4-methylbenzenesulfonate], the results for the IC50 on rhMAO-A, at rhVAP-1 and on rhMAO-B (setting [1]) were 1 to 10 µM, less than 100 nM and 1000 to 10000 nM, respectively.
With `CCCCn1nc2ccc(OC/C(=C\F)CN)cc2n1` [Example 66, (Z)-2-(((2-butyl-2H-benzo[d][1,2,3]triazol-5-yl)oxy)methyl)-3-fluoroprop-2-en-1-amine 4-methylbenzenesulfonate], the IC50 against rhMAO-A is 1 to 10 µM; on rhVAP-1, less than 100 nM; against rhMAO-B it was 100 to 1000 nM.
